Where two headings read alike, the source gives them in different places.
Assays:
SMN protein = SMN protein assay (MSD) in SMA patient fibroblasts GM03813; type: cell-based; conditions: SMA patient fibroblasts GM03813, 48 hours
Protocol: Compounds were tested on spinal muscular atrophy (SMA) patient fibroblasts (GM03813, Coriell) at doses ranging from 2.5 μM to 0.6 nM. 7000 cells/well were seeded in 96-well plates. Compounds were incubated for 48 hours and the cells were lysed with 100 μL of lysis buffer. 20 μL of lysate was used for SMN protein measurement by Mesoscale Discovery (MSD) assay developed by PharmOptima (Michigan). A standard curve prepared with SMN protein ranging from 1 μg/ml to 19.5 pg/ml was used in each MSD plate to calculate the absolute SMN protein amount in each sample.

[1] = tested on: MDR1-MDCK cell monolayers; assay: MDCK-MDR1 permeability assay (BBB penetration potential); type: in vitro ADME; conditions: 5 μM, 120 minutes; for MDCK-MDR1: % Recov A-B / MDCK-MDR1: % Recov B-A: pH 7.4
Protocol: (§1) Each determination is performed in duplicate. […] Analytical conditions are outlined below.
(§2) Papp=(dCr/dt)×Vr/(A×CA) (1)

MDR1 = assay: as above; type: in vitro ADME; conditions: dog; for Papp A→B at 120 min, 5 μM / Papp B→A at 120 min, 5 μM: MDCK-MDR1, pH 7.4
Protocol: as §1, §2

SMN2 = assay: Quantitative splicing assay (SMN) in SMA patient fibroblasts GM03813; type: cell-based; conditions: Homo sapiens, Fibroblast, SMA patient fibroblasts GM03813, 24 h; for IC50: read-out: SMN2 Potency - Splicing: Splicing D7 IC50 (average); for EC50: read-out: SMN2 Potency - Splicing: Splicing FL EC50 (average)
Protocol: Spinal muscular atrophy (SMA) patient fibroblasts (GM03813, Coriell) are plated in 96-well plates at 50,000 cells/well. Immediately after plating, cells are dosed with compounds for 24 h at concentrations ranging from 2.5 μM to 0.6 nM (0.1% DMSO). Treated cells are lysed and cDNA synthesized using the Fast Advanced Cells-to-Ct kit (Thermofisher A35378) according to the manufacturer's instructions. 2 μL of each cDNA are used in qPCR reactions. The qPCR reactions are prepared in 384-well plates in 10 μL volume, using TaqMan™ Fast Advanced Master Mix (ThermoFisher; 4444965) with primers and probes shown in the table below. Reactions are run in a Quant Studio 6 qPCR instrument with default settings.
It is to be understood that the absolute stereochemistry for compounds of Table 3 is not determined.

[2] = Fibroblast, 48 h, read-out: SMN2 Potency - Protein: Protein FL EC50 (average)
[3] = MDCK-MDR1, pH 7.4, Papp (B-to-A)/Papp (A-to-B), read-out: MDCK-MDR1: Efflux

SMILES | EC50 (SMN protein; Fibroblast, 48 h, separated enantiomers, told apart by chiral retention time, read-out: SMN EC50) [nM] | EC50 (SMN protein; separated enantiomers, told apart by chiral retention time, read-out: SMN EC50) [nM] | MDCK MDRP1 Efflux Ratio ([1]; Papp (B-to-A)/Papp (A-to-B), separated enantiomers, told apart by chiral retention time) | efflux ratio at 120 min, 5 μM (MDR1; MDCK-MDR1, pH 7.4, Papp (B-to-A)/Papp (A-to-B), 5 μM, 120 minutes, separated enantiomers, told apart by chiral retention time, read-out: MDCK MDRP1 Efflux Ratio) | IC50 (SMN2) [nM] | EC50 (SMN2) [nM] | EC50 (SMN protein; [2]) [nM] | MDCK-MDR1: % Recov A-B [1] [%] | MDCK-MDR1: % Recov B-A [1] [%] | efflux ratio at 120 min, 5 μM (MDR1; [3]) | Papp A→B at 120 min, 5 μM (MDR1; 5 μM, 120 minutes) [×10⁻⁶ cm/s] | Papp B→A at 120 min, 5 μM (MDR1; 5 μM, 120 minutes) [×10⁻⁶ cm/s]
CN(c1nnc(-c2ccc(-c3ccn(C)c(=O)c3)cc2O)s1)[C@@H]1C[C@H]2CC[C@H](N2)[C@@H]1F (racemic) [4A/4B, 4-[4-(5-{[(1S,2S,3R)-2-fluoro-8-azabicyclo[3.2.1]octan-3-yl](methyl)amino}-1,3,4-thiadiazol-2-yl)-3-hydroxyphenyl]-1-methyl-1,2-dihydropyridin-2-one and 4-[4-(5-{[(2R,3S,5S)-2-fluoro-8-azabicyclo[3.2.1]octan-3-yl](methyl)amino}-1,3,4-thiadiazol-2-yl)-3-hydroxyphenyl]-1-methyl-1,2-dihydropyridin-2-one] | 51 to 100 | 101 to 500 | 40 | 54 |  |  |  |  |  |  |  | 
COc1cc(-c2ccc(-c3nnc(N(C)[C@@H]4C[C@H]5CC[C@H](N5)[C@@H]4F)s3)c(O)c2)ncn1 (single isomer, unassigned) [Compound E-5A] |  |  |  |  | 51 to 100 | 51 to 100 | 16 to 50 | 41 | 61 | 2 | 7.8 | 19.1
CN(c1nnc(-c2cc(F)c(-c3cn[nH]c3)cc2O)s1)[C@H]1C[C@@H]2CC[C@@H](N2)[C@H]1F (single isomer, unassigned) [Compound E-6B] |  |  |  |  | 0.01 to 15 | 16 to 50 | 0.01 to 15 | 62 | 76 | 12 | 3.16 | 39.3
CN(c1nnc(-c2ccc(-c3cn[nH]c3)cc2O)s1)[C@@H]1C[C@H]2CC[C@H](N2)[C@@H]1F (single isomer, unassigned) [Compound E-7B] |  |  |  |  | 0.01 to 15 | 0.01 to 15 | 0.01 to 15 | 79 | 91 | 12 | 4.76 | 56
CN(c1nnc(-c2cc(F)c(-c3cnn(C)c3)cc2O)s1)[C@H]1C[C@@H]2CC[C@@H](N2)[C@H]1F (single isomer, unassigned) [Compound E-9A] |  |  |  |  | 51 to 100 | 101 to 500 | 51 to 100 | 51 | 68 | 6 | 5.87 | 36.3
CN(c1nnc(-c2cc(F)c(-c3cnn(C)c3)cc2O)s1)[C@@H]1C[C@H]2CC[C@H](N2)[C@@H]1F (single isomer, unassigned) [Compound E-9B] |  |  |  |  | 0.01 to 15 | 16 to 50 | 16 to 50 | 48 | 67 | 5 | 5.38 | 26
CN(c1nnc(-c2ccc(-c3cnn(CF)c3)cc2O)s1)[C@@H]1C[C@H]2CC[C@H](N2)[C@@H]1F (single isomer, unassigned) [Compound E-10B] |  |  |  |  | 16 to 50 | 16 to 50 | 0.01 to 15 | 72 | 73 | 6 | 7.85 | 48.9
CN(c1nnc(-c2ccc(-c3ccn(CF)c(=O)c3)cc2O)s1)[C@@H]1C[C@H]2CC[C@H](N2)[C@@H]1F (single isomer, unassigned) [Compound E-15A] |  |  |  |  |  |  |  | 82 | 96 | 40 | 1.39 | 55.6
CN(c1nnc(-c2ccc(-c3ccn(CF)c(=O)c3)cc2O)s1)[C@H]1C[C@@H]2CC[C@@H](N2)[C@H]1F (single isomer, unassigned) [Compound E-15B] |  |  |  |  | 51 to 100 | 101 to 500 | 16 to 50 | 88 | 97 | 66 | 0.98 | 64.8
CN(c1nnc(-c2ccc(-c3cn[nH]c3)cc2O)s1)[C@H]1C[C@@H]2CC[C@H]([C@H]1F)N2C (single isomer, unassigned) [Compound E-23A] |  |  |  |  | 501 to 10000 | 501 to 10000 | 101 to 500 | 78 | 90 | 9 | 4.65 | 41.2
CN(c1nnc(-c2ccc(-c3cn[nH]c3)cc2O)s1)[C@@H]1C[C@H]2CC[C@@H]([C@@H]1F)N2C (single isomer, unassigned) [Compound E-23B] |  |  |  |  |  |  |  | 83 | 89 | 7 | 5.69 | 39
CN(c1nnc(-c2cc(F)c(-c3cn[nH]c3)cc2O)s1)[C@H]1C[C@@H]2CC[C@H]([C@H]1F)N2C (single isomer, unassigned) [Compound E-24A] |  |  |  |  |  |  |  | 57 | 74 | 6 | 5.07 | 30.8
CN(c1nnc(-c2cc(F)c(-c3cn[nH]c3)cc2O)s1)[C@@H]1C[C@H]2CC[C@@H]([C@@H]1F)N2C (single isomer, unassigned) [Compound E-24B] |  |  |  |  |  |  |  | 59 | 82 | 7 | 4.16 | 29.4
CN(c1nnc(-c2ccc(-c3cnn(C)c3)cc2O)s1)[C@H]1C[C@@H]2CC[C@H]([C@H]1F)N2C (single isomer, unassigned) [Compound E-25A] |  |  |  |  |  |  |  | 70 | 82 | 4 | 8.7 | 32
CN(c1nnc(-c2ccc(-c3cnn(C)c3)cc2O)s1)[C@@H]1C[C@H]2CC[C@@H]([C@@H]1F)N2C (single isomer, unassigned) [Compound E-25B] |  |  |  |  |  |  |  | 67 | 83 | 3 | 7.16 | 22.7
CN(c1nnc(-c2ccc(-c3cnn(C)c3)cc2O)s1)[C@@H]1C[C@H]2CCC[C@H](N2)[C@@H]1F [Compound E-1A, 2-(5-(((1S,2S,3R,5R)-2-fluoro-9-azabicyclo[3.3.1]nonan-3-yl)(methyl)amino)-1,3,4-thiadiazol-2-yl)-5-(1-methyl-1H-pyrazol-4-yl)phenol] |  |  |  |  | 51 to 100 | 101 to 500 | 16 to 50 | 57 | 71 | 6 | 5.28 | 33.1
CN(c1nnc(-c2ccc(-c3cnn(C)c3)cc2O)s1)[C@H]1C[C@@H]2CCC[C@@H](N2)[C@H]1F [Compound E-1B, 2-(5-(((1R,2R,3S,5S)-2-fluoro-9-azabicyclo[3.3.1]nonan-3-yl)(methyl)amino)-1,3,4-thiadiazol-2-yl)-5-(1-methyl-1H-pyrazol-4-yl)phenol] |  |  |  |  | 0.01 to 15 | 16 to 50 | 0.01 to 15 | 53 | 68 | 4 | 5.53 | 20.4
COc1cc(-c2ccc(-c3nnc(N(C4CC4)[C@@H]4C[C@H]5CC[C@H](N5)[C@@H]4F)s3)c(O)c2)cc(F)n1 [Compound E-2A, 2-(5-(cyclopropyl((1S,2S,3R,5R)-2-fluoro-8-azabicyclo[3.2.1]octan-3-yl)amino)-1,3,4-thiadiazol-2-yl)-5-(2-fluoro-6-methoxypyridin-4-yl)phenol] |  |  |  |  | 0.01 to 15 | 16 to 50 | 0.01 to 15 | 19 | 45 | 6 | 2.07 | 12

From patent US20230069804A1, “METHODS AND COMPOSITIONS FOR MODULATING SPLICING” (SkyHawk Therapeutics, Inc., priority 2019, published 2023)
